{"source": "patent US20070254312A1", "about": "“Protein Kinase Inhibitors and Methods for Identiying Same” (priority 2004, published 2007)", "key": {"[1]": {"molecular_target": "T1, PKCδ (Homo sapiens, UniProt Q05655)", "T1 sequence (Q05655 whole entry, canonical isoform)": "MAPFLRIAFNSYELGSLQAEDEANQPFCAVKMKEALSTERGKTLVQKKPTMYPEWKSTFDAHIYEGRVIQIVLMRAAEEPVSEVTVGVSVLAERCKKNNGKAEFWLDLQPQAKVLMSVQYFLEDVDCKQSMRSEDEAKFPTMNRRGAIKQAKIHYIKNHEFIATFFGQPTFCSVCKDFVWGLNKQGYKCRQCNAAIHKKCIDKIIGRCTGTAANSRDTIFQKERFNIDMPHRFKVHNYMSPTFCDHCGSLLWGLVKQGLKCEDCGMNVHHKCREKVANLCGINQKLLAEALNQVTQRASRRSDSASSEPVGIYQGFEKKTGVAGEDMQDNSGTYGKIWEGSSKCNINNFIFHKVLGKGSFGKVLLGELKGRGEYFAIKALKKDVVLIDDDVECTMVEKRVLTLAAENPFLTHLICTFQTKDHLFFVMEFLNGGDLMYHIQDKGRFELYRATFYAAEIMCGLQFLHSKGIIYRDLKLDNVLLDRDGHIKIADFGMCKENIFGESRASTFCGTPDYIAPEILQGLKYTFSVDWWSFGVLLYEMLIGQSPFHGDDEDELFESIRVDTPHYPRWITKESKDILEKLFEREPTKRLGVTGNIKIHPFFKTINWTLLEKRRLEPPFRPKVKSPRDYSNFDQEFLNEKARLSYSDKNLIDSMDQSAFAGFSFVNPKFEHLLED", "set-up": "purchased Panvera", "details": "literature values; relative to most potently inhibited isoform (=1); cited from earlier work"}, "[2]": {"molecular_target": "PKCγ (Homo sapiens, UniProt P05129)", "assay": "PKC isoform assay, Example 1", "format": "biochemical", "set-up": "purchased Pan Vera", "description": "(§1) Protein Kinase C Assay (general). The peptides […] (for PKC α, β and γ) and acetyl-[…] (for PKC ε and ζ) were used as substrates. […] Total reaction volume was 50 μL. […] Following an additional 5 min incubation at ambient temperature, 75 μL from each reaction well was transferred into each well of a Unifilter (P81 cellulose phosphate paper) assay plate and washed four times with 0.1% phosphoric acid in water. […] IC50 values were calculated using GraFit (Erithacus Software Limited) and Ki values were calculated using Enzyme Kinetics, SigmaPlot (SPSS Inc.)"}, "[3]": {"molecular_target": "PKC β1 (Homo sapiens, UniProt P05771)", "sequence (P05771 whole entry, canonical isoform)": "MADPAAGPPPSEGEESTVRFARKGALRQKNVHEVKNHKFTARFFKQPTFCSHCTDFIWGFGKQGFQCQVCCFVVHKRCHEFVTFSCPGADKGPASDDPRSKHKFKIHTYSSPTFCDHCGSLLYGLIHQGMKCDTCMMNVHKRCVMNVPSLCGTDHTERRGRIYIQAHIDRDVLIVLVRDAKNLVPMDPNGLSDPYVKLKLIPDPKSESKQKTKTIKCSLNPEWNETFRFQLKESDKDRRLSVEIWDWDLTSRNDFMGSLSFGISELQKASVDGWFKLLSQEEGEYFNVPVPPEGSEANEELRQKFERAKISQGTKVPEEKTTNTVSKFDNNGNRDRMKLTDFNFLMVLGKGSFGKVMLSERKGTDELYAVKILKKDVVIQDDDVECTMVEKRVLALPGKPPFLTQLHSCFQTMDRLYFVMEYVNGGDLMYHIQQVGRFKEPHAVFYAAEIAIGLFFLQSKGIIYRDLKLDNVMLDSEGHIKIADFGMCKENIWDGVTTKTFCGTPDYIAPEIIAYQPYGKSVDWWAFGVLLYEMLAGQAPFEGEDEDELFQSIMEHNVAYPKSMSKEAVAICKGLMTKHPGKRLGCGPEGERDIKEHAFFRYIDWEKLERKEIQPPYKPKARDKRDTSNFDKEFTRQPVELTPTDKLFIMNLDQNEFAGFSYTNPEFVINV", "details": "literature values; relative to most potently inhibited isoform (=1); cited from earlier work"}, "[4]": {"molecular_target": "T2, PKCθ (Homo sapiens, UniProt Q04759)", "T2 sequence (Q04759 whole entry, canonical isoform)": "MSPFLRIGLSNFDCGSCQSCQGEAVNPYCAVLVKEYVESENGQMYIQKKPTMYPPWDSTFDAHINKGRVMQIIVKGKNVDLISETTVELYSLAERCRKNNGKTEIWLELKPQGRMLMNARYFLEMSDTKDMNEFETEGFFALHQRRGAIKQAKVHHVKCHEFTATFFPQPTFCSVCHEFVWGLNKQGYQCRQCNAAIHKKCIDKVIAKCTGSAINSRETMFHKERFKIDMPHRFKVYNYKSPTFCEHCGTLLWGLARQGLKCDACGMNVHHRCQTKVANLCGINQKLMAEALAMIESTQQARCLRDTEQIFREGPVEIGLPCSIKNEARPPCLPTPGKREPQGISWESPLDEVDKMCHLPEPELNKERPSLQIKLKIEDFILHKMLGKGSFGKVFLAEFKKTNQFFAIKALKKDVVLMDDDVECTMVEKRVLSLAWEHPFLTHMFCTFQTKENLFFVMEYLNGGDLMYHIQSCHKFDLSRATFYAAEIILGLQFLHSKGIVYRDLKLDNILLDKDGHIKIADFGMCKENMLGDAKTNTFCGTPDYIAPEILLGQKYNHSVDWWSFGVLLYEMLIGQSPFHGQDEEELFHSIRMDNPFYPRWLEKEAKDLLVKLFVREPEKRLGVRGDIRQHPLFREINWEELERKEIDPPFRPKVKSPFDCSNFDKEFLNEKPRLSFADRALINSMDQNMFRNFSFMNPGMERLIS", "assay": "PKC isoform assay, Example 1", "format": "biochemical", "set-up": "purchased Pan Vera", "from_the_text": "(§2) Protein Kinase C Assay (general). The peptides Ac-Ser-Phe-Arg-Arg-Arg-NH2 (for PKC α, β and γ) and acetyl-[…]NH2 (for PKC ε and ζ) were used as substrates."}, "[5]": {"molecular_target": "T1, PKCδ", "assay": "PKC isoform assay, Example 1", "format": "biochemical", "set-up": "purchased Pan Vera", "from_the_text": "as §2"}, "[6]": {"molecular_target": "PKCη (Homo sapiens, UniProt P24723)", "sequence (P24723 whole entry, canonical isoform)": "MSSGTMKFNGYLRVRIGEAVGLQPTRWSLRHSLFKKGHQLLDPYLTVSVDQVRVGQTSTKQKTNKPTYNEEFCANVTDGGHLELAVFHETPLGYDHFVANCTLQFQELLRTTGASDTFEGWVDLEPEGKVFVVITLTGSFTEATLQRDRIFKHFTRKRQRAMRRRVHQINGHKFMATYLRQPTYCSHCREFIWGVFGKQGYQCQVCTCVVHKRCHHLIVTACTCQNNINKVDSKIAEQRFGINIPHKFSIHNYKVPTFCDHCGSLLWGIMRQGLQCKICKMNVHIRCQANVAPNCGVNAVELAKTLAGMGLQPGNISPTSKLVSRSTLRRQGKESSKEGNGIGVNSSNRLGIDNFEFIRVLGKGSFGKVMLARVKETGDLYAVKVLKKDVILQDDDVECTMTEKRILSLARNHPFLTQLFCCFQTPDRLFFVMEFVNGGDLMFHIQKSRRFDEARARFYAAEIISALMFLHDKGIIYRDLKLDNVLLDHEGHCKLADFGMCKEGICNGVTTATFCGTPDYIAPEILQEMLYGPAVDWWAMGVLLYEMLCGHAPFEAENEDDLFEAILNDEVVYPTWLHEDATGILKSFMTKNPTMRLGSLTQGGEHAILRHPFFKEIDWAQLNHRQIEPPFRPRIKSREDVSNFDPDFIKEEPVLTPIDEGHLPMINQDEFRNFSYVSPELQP", "assay": "PKC isoform assay, Example 1", "format": "biochemical", "set-up": "purchased Pan Vera", "from_the_text": "as §2"}, "[7]": {"molecular_target": "T3, PKCε (Homo sapiens, UniProt Q02156)", "T3 sequence (Q02156 1-737)": "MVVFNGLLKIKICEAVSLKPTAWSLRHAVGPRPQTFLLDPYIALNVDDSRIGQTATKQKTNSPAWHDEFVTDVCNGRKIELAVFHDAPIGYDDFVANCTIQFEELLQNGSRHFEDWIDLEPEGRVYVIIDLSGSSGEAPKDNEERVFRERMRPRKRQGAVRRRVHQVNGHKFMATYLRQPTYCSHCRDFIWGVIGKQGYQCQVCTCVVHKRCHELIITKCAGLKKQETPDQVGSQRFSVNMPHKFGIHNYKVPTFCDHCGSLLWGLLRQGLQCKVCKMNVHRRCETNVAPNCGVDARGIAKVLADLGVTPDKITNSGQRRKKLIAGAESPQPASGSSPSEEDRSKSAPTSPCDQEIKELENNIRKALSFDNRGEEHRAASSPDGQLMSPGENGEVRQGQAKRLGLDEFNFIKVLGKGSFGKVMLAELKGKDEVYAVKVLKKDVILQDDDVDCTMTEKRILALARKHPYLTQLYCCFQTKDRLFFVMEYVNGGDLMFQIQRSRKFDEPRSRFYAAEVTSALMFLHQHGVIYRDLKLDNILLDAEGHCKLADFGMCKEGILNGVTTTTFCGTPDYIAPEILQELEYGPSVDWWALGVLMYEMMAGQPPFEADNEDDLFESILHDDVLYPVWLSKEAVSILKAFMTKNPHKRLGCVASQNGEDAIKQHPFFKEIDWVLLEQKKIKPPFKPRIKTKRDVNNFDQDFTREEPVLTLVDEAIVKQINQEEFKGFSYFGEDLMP", "set-up": "purchased Panvera", "details": "literature values; relative to most potently inhibited isoform (=1); cited from earlier work"}, "[8]": {"molecular_target": "T2, PKCθ", "set-up": "purchased Panvera", "details": "literature values; relative to most potently inhibited isoform (=1); cited from earlier work"}, "[9]": {"molecular_target": "T4, PKCβ (Homo sapiens, UniProt P05771)", "T4 construct": "purchased Pan Vera", "T4 sequence (P05771 whole entry, canonical isoform)": "as the sequence (P05771 whole entry, canonical isoform) above", "assay": "PKC isoform assay, Example 1", "format": "biochemical", "description": "as §1"}, "[10]": {"molecular_target": "T5, PKCζ (Homo sapiens, UniProt Q05513)", "T5 sequence (Q05513 1-592)": "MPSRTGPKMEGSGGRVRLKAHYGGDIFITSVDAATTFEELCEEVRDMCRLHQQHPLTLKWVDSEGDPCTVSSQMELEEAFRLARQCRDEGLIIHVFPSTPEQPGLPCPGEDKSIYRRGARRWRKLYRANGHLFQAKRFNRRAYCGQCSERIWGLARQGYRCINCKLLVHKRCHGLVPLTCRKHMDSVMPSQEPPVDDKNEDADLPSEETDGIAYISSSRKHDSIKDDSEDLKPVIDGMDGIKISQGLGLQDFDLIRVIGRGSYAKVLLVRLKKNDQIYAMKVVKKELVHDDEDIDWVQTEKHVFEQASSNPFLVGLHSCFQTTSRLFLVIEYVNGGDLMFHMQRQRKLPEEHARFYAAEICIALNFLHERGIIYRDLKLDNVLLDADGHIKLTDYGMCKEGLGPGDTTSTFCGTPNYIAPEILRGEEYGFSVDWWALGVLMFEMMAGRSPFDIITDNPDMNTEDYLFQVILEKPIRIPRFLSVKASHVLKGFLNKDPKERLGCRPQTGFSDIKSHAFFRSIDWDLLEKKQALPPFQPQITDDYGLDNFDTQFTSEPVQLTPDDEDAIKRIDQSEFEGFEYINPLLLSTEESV", "set-up": "purchased Panvera", "details": "literature values; relative to most potently inhibited isoform (=1); cited from earlier work"}, "[11]": {"molecular_target": "T6, PKCτ (Homo sapiens, UniProt P41743)", "T6 construct": "purchased Pan Vera", "T6 sequence (P41743 1-596)": "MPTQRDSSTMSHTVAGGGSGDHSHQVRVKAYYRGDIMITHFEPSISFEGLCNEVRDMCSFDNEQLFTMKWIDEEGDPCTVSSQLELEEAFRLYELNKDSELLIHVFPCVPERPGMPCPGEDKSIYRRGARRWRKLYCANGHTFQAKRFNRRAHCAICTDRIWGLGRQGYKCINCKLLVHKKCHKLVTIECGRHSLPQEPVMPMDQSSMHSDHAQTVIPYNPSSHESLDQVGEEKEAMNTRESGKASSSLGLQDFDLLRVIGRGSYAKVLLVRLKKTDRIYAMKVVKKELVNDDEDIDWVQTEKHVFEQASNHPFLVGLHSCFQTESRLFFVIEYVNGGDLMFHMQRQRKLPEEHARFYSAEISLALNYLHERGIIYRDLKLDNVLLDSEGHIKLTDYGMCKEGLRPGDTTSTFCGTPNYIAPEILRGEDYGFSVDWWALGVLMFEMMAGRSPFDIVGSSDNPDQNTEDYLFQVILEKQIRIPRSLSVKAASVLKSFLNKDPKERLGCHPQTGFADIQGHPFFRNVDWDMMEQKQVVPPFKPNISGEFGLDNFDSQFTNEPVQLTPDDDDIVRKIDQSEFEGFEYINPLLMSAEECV", "assay": "PKC isoform assay, Example 1", "format": "biochemical", "from_the_text": "as §2"}}, "note": "Starred links: 1 amine or outer side, 2 acyl side, 3 side chain; linkers in the order of their positions; H or OH if unused. Non-standard residues stand in square brackets, D forms with d. Residues, ends and D or L forms follow the SMILES beside them. *: point of attachment. Benzoyl(4-(pyrrol-1-yl)) = O=C(c1ccc(-n2cccc2)cc1)*; Phenylacetyl(3,4-Cl2) = O=C(Cc1ccc(Cl)c(Cl)c1)*; Cysteamide = C(CS[*:3])N[*:1]; Dap = NC[C@H](N)C(=O)O"}
{"smiles": "CC(C)C[C@H](NC(=O)[C@H](C)NC(=O)CNC(=O)[C@H](CCCNC(=N)N)NC(=O)[C@H](CCCNC(=N)N)NC(=O)[C@H](C)NC(=O)Cc1ccc(Cl)c(Cl)c1)C(=O)N[C@@H](CCCNC(=N)N)C(=O)N[C@@H](CNC(=O)c1ccc(-n2cccc2)cc1)C(=O)N[C@@H](C)C(=O)NCCS", "note": "[Compound 6] ({Phenylacetyl(3,4-Cl2)}-ARRGALR[Dap](Benzoyl(4-(pyrrol-1-yl)))A-Cysteamide)", "values": [{"measurement": "Fold selectivity (IC50), PKC δ", "setting": "[1]", "value": 2730, "unit": "fold"}, {"measurement": "selectivity for PKCα versus PKCγ", "setting": "[2]", "value": 580, "unit": "fold"}, {"measurement": "Fold selectivity (IC50), PKC β1", "setting": "[3]", "value": 385, "unit": "fold"}, {"measurement": "selectivity for PKCα versus PKCθ", "setting": "[4]", "value": 1210, "unit": "fold"}, {"measurement": "selectivity for PKCα versus PKCδ", "setting": "[5]", "value": 2730, "unit": "fold"}, {"measurement": "selectivity for PKCα versus PKCη", "setting": "[6]", "value": 1310, "unit": "fold"}, {"measurement": "Fold selectivity (IC50), PKC ε", "setting": "[7]", "value": 600, "unit": "fold"}, {"measurement": "Fold selectivity (IC50), PKC θ", "setting": "[8]", "value": 1210, "unit": "fold"}, {"measurement": "selectivity for PKCα versus PKCβ", "setting": "[9]", "value": 385, "unit": "fold"}, {"measurement": "Fold selectivity (IC50), PKC ζ", "setting": "[10]", "value": 640, "unit": "fold"}, {"measurement": "selectivity for PKCα versus PKCτ", "setting": "[11]", "value": 940, "unit": "fold"}]}
